Results: US20100092534A1, “Combination Local Delivery Using a Stent” (Medtronic Vascular, Inc., priority 2008, published 2010)

Key:
[1] = Solubility in ethanol (coating solvent); assay type: physicochemical
Excerpt: In the following Example, ethanol is chosen as the solvent of choice. The coating to be applied to the stent is a bioactive agent combination, consisting of a mTOR inhibitor and a glucocorticoid. The mTOR inhibitor is zotarolimus. The glucocorticoid is fluocinolone. […] Persons having ordinary skill in the art of polymer chemistry can easily pair the appropriate solvent system to the polymer-bioactive agent(s) combination and achieve optimum results with no more than routine experimentation.

[2] = test system: monocyte chemoattractant protein-1 (MCP-1); test: Relative gene expression of MCP-1 (mRNA) in stented porcine vessels; assay type: in vivo; settings: local delivery from a vascular stent; 7 days after stenting; compared to a bare metal stent; measured on mRNA; FIG. 1A
Excerpt: FIG. 1: Relative gene expression of (A) MCP-1 and (B) TF in porcine vessels that were stented with zotarolimus coated stents compared with uncoated stents and stents coated with fluocinolone. The drug doses are indicated in ug/mm^2. FIG. 2: Relative gene expression of MCP-1 in porcine vessels that were stented with stents coated with zotarolimus alone compared to stents coated with zotarolimus combined with fluocinolone or fluocinolone alone. The drug doses are indicated in ug/mm^2. […] Furthermore, following stent placement, MCP-1 levels in plasma increase after several days and are more likely to be elevated at follow-up 6 months later in patients who have restenosis. In one embodiment, a dose titration experiment can be conducted to determine the optimal dosage for combination of zotarolimus (e.g. anti-proliferative drug) and fluocinolone (e.g. anti-inflammatory drug). At an optimal dose zotarolimus can inhibit neointimal hyperplasia via inhibition of smooth muscle cells proliferation, while maintaining low levels of MCP-1 and TF due to the inhibitory effect of fluocinolone. […] The stented vessels can be excised 7 days post stenting and the expression of TF and MCP-1 can be evaluated via real time-PCR using porcine primers and probes, allowing the quantative measurement at transcriptional level.

tissue factor (TF) = test: Relative gene expression of TF in stented porcine vessels; assay type: in vivo; settings: local delivery from a vascular stent; several days after stenting; FIG. 1B
Excerpt: FIG. 1: Relative gene expression of (A) MCP-1 and (B) TF in porcine vessels that were stented with zotarolimus coated stents compared with uncoated stents and stents coated with fluocinolone. The drug doses are indicated in ug/mm^2. As such, delivery of zotarolimus locally from a vascular stent increases the expression of TF in stented vessels. The increased expression can be seen several days after the stenting procedure was preformed (FIG. 1B). In one embodiment, a dose titration experiment can be conducted to determine the optimal dosage for combination of zotarolimus (e.g. anti-proliferative drug) and fluocinolone (e.g. anti-inflammatory drug). At an optimal dose zotarolimus can inhibit neointimal hyperplasia via inhibition of smooth muscle cells proliferation, while maintaining low levels of MCP-1 and TF due to the inhibitory effect of fluocinolone. The evaluation of MCP-1 and TF can be performed by conducting pre-clinical, porcine study using stents loaded with escalating doses of at least zotarolimus or in combination with escalating dosages of fluocinolone and evaluating the expression of MCP-1 and TF in the vessels stented with these stents. […] The stented vessels can be excised 7 days post stenting and the expression of TF and MCP-1 can be evaluated via real time-PCR using porcine primers and probes, allowing the quantative measurement at transcriptional level.

solubility in ethanol [1]	SMILES	expression of monocyte chemoattractant protein-1 (MCP-1) in stented vessels [2]	expression of TF in stented vessels (tissue factor (TF))
freely soluble	CC1(C)O[C@@H]2C[C@H]3[C@@H]4C[C@H](F)C5=CC(=O)C=C[C@]5(C)[C@@]4(F)[C@@H](O)C[C@]3(C)[C@]2(C(=O)CO)O1 [fluocinolone]		
freely soluble	CO[C@H]1C[C@@H]2CC[C@@H](C)[C@@](O)(O2)C(=O)C(=O)N2CCCC[C@H]2C(=O)O[C@H]([C@H](C)C[C@@H]2CC[C@H](n3cnnn3)[C@H](OC)C2)CC(=O)[C@H](C)/C=C(\C)[C@@H](O)[C@@H](OC)C(=O)[C@H](C)C[C@H](C)/C=C/C=C/C=C/1C [zotarolimus]	increased	increases
